From patent US20250346600A1, “TRICYCLIC DERIVATIVES AND RELATED USES” (MOMA Therapeutics, Inc., priority 2023, published 2025)
Like-named read-outs stand apart in the source and are kept apart here.

Legend:
HT29 cells = assay: HT29 (MSS) 7 day viability, CellTiter Glo; format: cell-based; conditions: 7 days, read-out: HT29 (MSS) Viability 7 Day CTGAbs AC50
Summary of the method: (§1)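 HCT116 (50 cells/well) or HT29 (500 cells/well) exposed 7 days at 37° C, 5% CO2, to 10-point 3-fold compound dilutions. Viability measured by CellTiter Glo luminescence, background from cell-free wells; IC50 from four-parameter logistic fit, geometric mean of at least 2 replicates.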

HCT116 cells = assay: HCT116 (MSI) 7 day viability, CellTiter Glo; format: cell-based; conditions: 7 days, read-out: HCT116 (MSI) Viability 7 Day Abs AC50
Summary of the method: as §1

[1] = biological target: T1, Full length WRN protein (aa 2-1432) (Homo sapiens (Human), UniProt Q14191); assay: WRN ATPase ADP-Glo biochemical assay, Assay Format B (100 μM ATP); conditions: 0.25 nM WRN, 100 nM C6.18 ssDNA, 60 min preincubation, read-out: ATPase ADPGlo AC50 (uM)- Assay Format B
[2] = biological target: T1, Full length WRN protein (aa 2-1432); assay: WRN ATPase ADP-Glo biochemical assay, Assay Format A (10 μM ATP); conditions: 0.25 nM WRN, 100 nM C6.18 ssDNA, 30 min preincubation, read-out: ATPase ADPGlo AC50 (uM)- Assay Format A
Summary of the method: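 Sf9-expressed FLAG-AVI-TEV-tagged WRN (0.5 nM) preincubated 30 min with compound (11-point 3-fold dilution). Reaction started with 200 nM C6.18 39-mer ssDNA and 20 μM ATP (addition concentrations), run 30 min at room temperature. ADP measured by ADP-Glo luminescence; IC50 from four-parameter fit, geometric mean of ≥2 runs.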

T1 sequence (Q14191 2-1432): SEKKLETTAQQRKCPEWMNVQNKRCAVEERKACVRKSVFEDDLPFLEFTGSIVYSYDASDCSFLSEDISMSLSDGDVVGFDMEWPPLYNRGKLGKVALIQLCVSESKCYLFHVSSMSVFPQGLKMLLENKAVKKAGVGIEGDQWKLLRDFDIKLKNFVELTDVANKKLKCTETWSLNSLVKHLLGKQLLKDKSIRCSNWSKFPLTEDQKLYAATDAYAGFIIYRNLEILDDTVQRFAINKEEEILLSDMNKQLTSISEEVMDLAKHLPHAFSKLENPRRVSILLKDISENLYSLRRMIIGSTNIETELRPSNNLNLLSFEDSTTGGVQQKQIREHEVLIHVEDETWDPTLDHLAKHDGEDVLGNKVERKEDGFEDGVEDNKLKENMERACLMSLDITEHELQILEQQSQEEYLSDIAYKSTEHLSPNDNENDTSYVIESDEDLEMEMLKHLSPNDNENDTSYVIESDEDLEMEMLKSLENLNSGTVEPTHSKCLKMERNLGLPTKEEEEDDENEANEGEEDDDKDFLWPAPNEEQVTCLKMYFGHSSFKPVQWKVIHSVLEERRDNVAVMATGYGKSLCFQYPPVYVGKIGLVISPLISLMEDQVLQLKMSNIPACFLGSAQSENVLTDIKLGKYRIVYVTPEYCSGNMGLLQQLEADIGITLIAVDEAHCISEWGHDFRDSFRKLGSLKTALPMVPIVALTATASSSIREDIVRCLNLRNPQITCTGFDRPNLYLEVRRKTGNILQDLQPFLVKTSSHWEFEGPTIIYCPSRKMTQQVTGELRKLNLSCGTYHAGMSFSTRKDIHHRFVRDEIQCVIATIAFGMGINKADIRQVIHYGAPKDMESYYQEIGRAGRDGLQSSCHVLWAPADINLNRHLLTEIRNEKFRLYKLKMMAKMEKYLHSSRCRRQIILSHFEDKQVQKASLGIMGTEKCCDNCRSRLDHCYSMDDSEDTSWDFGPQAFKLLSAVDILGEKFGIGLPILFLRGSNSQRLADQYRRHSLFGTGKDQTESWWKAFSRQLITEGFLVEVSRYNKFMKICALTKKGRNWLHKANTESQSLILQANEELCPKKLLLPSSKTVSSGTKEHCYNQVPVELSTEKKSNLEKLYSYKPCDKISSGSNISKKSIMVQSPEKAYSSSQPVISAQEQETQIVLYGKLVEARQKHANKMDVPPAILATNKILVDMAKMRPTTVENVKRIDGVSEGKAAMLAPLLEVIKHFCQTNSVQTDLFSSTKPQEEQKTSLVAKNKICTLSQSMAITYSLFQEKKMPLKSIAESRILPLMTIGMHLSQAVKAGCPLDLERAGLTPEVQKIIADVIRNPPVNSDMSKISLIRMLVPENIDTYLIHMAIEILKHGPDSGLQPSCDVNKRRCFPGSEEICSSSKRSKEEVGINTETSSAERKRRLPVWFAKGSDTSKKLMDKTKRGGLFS

| Structure (SMILES) | AC50 [1] | AC50 [2] | AC50 (HT29 cells; Homo sapiens, HT-29, 168 h) | AC50 (HCT116 cells; Homo sapiens, HCT-116, 168 h) | AC50 (HT29 cells) | AC50 (HCT116 cells) |
| --- | --- | --- | --- | --- | --- | --- |
| C=CC(=O)N1CCc2nn(-c3ccc(C(C)C)cc3)c3c2C(C1)N(C(=O)c1ccc(C(F)(F)F)c(=O)[nH]1)CC3 (stereo not drawn) [Compound 58, 6-(7-acryloyl-2-(4-isopropylphenyl)-3,4,5,5a,6,7,8,9-octahydro-2H-1,2,5,7-tetraazabenzo[cd]azulene-5-carbonyl)-3-(trifluoromethyl)pyridin-2(1H)-one] | 0.015 to 0.055 µM | 0.0015 to 0.005 µM | > 3000 nM | 100 to 250 nM | – | – |
| C=CC(=O)N1CCc2nn(-c3ccc(C(C)C)cc3)c3c2C(C1)N(C(=O)c1ccc(Br)c2ncn(CCOC)c12)CC3 (stereo not drawn) [Compound 73, 1-(5-(4-bromo-1-(2-methoxyethyl)-1H-benzo[d]imidazole-7-carbonyl)-2-(4-isopropylphenyl)-2,3,4,5,5a,6,8,9-octahydro-7H-1,2,5,7-tetraazabenzo[cd]azulen-7-yl)prop-2-en-1-one] | 0.015 to 0.055 µM | 0.0015 to 0.005 µM | > 3000 nM | 100 to 250 nM | – | – |
| C=CC(=O)N1CCc2nn(-c3ccc(C4CC4)cc3)c3c2C(C1)N(C(=O)c1cnc(C(F)(F)F)c(O)c1)CC3 (stereo not drawn) [Compound 1, 1-(2-(4-cyclopropylphenyl)-5-(5-hydroxy-6-(trifluoromethyl)nicotinoyl)-2,3,4,5,5a,6,8,9-octahydro-7H-1,2,5,7-tetraazabenzo[cd]azulen-7-yl)prop-2-en-1-one] | 0.015 to 0.055 µM | 0.0015 to 0.005 µM | > 3000 nM | 100 to 250 nM | – | – |
| C=CC(=O)N1CCOc2nn(-c3ccc(C(C)C)cc3)c3c2C(C1)N(C(=O)c1ccc(Br)c2[nH]cnc12)CC3 (stereo not drawn) [Compound 46, 1-(5-(7-bromo-1H-benzo[d]imidazole-4-carbonyl)-2-(4-isopropylphenyl)-2,3,4,5,5a,6,8,9-octahydro-7H-10-oxa-1,2,5,7-tetraazacycloocta[cd]inden-7-yl)prop-2-en-1-one] | 0.015 to 0.055 µM | 0.0015 to 0.005 µM | > 3000 nM | 1 to 100 nM | – | – |
| C=CC(=O)N1CCc2nn(-c3ccc(C4CCC4)cc3O)c3c2C(C1)N(C(=O)c1ccc(Br)c2[nH]cnc12)CC3 (stereo not drawn) [Compound 23, 1-(5-(7-bromo-1H-benzo[d]imidazole-4-carbonyl)-2-(4-cyclobutyl-2-hydroxyphenyl)-2,3,4,5,5a,6,8,9-octahydro-7H-1,2,5,7-tetraazabenzo[cd]azulen-7-yl)prop-2-en-1-one] | 0.0015 to 0.005 µM | < 0.0015 µM | > 3000 nM | 1 to 100 nM | – | – |
| C=CC(=O)N1CC(F)c2nn(-c3ccc(C4CCC4)cc3)c3c2C(C1)N(C(=O)c1ccc(Br)c2[nH]cnc12)CC3 (stereo not drawn) [Compound 28, 1-(5-(7-bromo-1H-benzo[d]imidazole-4-carbonyl)-2-(4-cyclobutylphenyl)-9-fluoro-2,3,4,5,5a,6,8,9-octahydro-7H-1,2,5,7-tetraazabenzo[cd]azulen-7-yl)prop-2-en-1-one] | 0.0015 to 0.005 µM | < 0.0015 µM | 1000 to 3000 nM | 1 to 100 nM | – | – |
| C=CC(=O)N1CCc2nn(-c3ccc(C(C)C)cc3)c3c2C(C1)N(C(=O)c1ccc(Br)c2ncn(CC4CCO4)c12)CC3 (stereo not drawn) [Compound 83, 1-(5-(4-bromo-1-((oxetan-2-yl)methyl)-1H-benzo[d]imidazole-7-carbonyl)-2-(4-isopropylphenyl)-2,3,4,5,5a,6,8,9-octahydro-7H-1,2,5,7-tetraazabenzo[cd]azulen-7-yl)prop-2-en-1-one] | > 0.055 µM | 0.005 to 0.015 µM | – | – | > 3000 nM | 500 to 1000 nM |
| C=CC(=O)N1CC(C)c2nn(-c3ccc(C(C)C)cc3O)c3c2C(C1)N(C(=O)c1ccc(Br)c2[nH]cnc12)CC3 (stereo not drawn) [Compound 32, 1-(5-(7-bromo-1H-benzo[d]imidazole-4-carbonyl)-2-(2-hydroxy-4-isopropylphenyl)-9-methyl-2,3,4,5,5a,6,8,9-octahydro-7H-1,2,5,7-tetraazabenzo[cd]azulen-7-yl)prop-2-en-1-one] | 0.005 to 0.015 µM | < 0.0015 µM | – | – | > 3000 nM | 1 to 100 nM |
| C=CC(=O)N1CCc2nn(-c3ccc(C4CC4)c(F)c3OC)c3c2C(C1)N(C(=O)c1cnc(C(F)(F)F)c(O)c1)CC3 (stereo not drawn) [Compound 63, 1-(2-(4-cyclopropyl-3-fluoro-2-methoxyphenyl)-5-(5-hydroxy-6-(trifluoromethyl)nicotinoyl)-2,3,4,5,5a,6,8,9-octahydro-7H-1,2,5,7-tetraazabenzo[cd]azulen-7-yl)prop-2-en-1-one] | 0.015 to 0.055 µM | 0.0015 to 0.005 µM | > 3000 nM | 500 to 1000 nM | – | – |
| C=CC(=O)N1CCc2nn(-c3ccc(C4CCC4)cc3O)c3c2C(C1)N(C(=O)c1ccc(Br)c2[nH]c(CO)nc12)CC3 (stereo not drawn) [Compound 75, 1-(5-(7-bromo-2-(hydroxymethyl)-1H-benzo[d]imidazole-4-carbonyl)-2-(4-cyclobutyl-2-hydroxyphenyl)-2,3,4,5,5a,6,8,9-octahydro-7H-1,2,5,7-tetraazabenzo[cd]azulen-7-yl)prop-2-en-1-one] | 0.0015 to 0.005 µM | < 0.0015 µM | > 3000 nM | 1 to 100 nM | – | – |

More lines, main results first:

| AC50 [1] | AC50 [2] | Structure (SMILES) | AC50 (HT29 cells; Homo sapiens, HT-29, 168 h) | AC50 (HCT116 cells; Homo sapiens, HCT-116, 168 h) | AC50 (HT29 cells) | AC50 (HCT116 cells) |
| --- | --- | --- | --- | --- | --- | --- |
| 0.015 to 0.055 µM | 0.0015 to 0.005 µM | C=CC(=O)N1CCc2nn(-c3ccc(C4CCC4)cc3O)c3c2C(C1)N(C(=O)c1ccc(C(F)(F)F)c2ncncc12)CC3 (stereo not drawn) [Compound 242, 1-(2-(4-cyclobutyl-2-hydroxyphenyl)-5-(8-(trifluoromethyl)quinazoline-5-carbonyl)-2,3,4,5,5a,6,8,9-octahydro-7H-1,2,5,7-tetraazabenzo[cd]azulen-7-yl)prop-2-en-1-one] | > 3000 nM | 1 to 100 nM | – | – |
| > 0.055 µM | 0.005 to 0.015 µM | C=CC(=O)N1CCc2nn(-c3ccc(C(C)C)cc3)c3c2C(C1)N(C(=O)c1ccc(Br)c(C(C)(C)O)c1)CC3 (stereo not drawn) [Compound 102, 1-(5-(4-bromo-3-(2-hydroxypropan-2-yl)benzoyl)-2-(4-isopropylphenyl)-2,3,4,5,5a,6,8,9-octahydro-7H-1,2,5,7-tetraazabenzo[cd]azulen-7-yl)prop-2-en-1-one] | > 3000 nM | 500 to 1000 nM | – | – |
| 0.005 to 0.015 µM | < 0.0015 µM | C=CC(=O)N1CCc2nn(-c3ccc(C4CC4)cc3O)c3c2C(C1)N(C(=O)c1cnc(C(F)(F)F)cc1N)CC3 (stereo not drawn) [Compound 163, 1-(5-(4-amino-6-(trifluoromethyl)nicotinoyl)-2-(4-cyclopropyl-2-hydroxyphenyl)-2,3,4,5,5a,6,8,9-octahydro-7H-1,2,5,7-tetraazabenzo[cd]azulen-7-yl)prop-2-en-1-one] | > 3000 nM | 1 to 100 nM | – | – |
| 0.0015 to 0.005 µM | < 0.0015 µM | C=CC(=O)N1CCc2nn(-c3ccc(C4CC4)cc3)c3c2C(C1)N(C(=O)c1cnc(Br)c(F)c1N)CC3 (stereo not drawn) [Compound 182, 1-(5-(4-amino-6-bromo-5-fluoronicotinoyl)-2-(4-cyclopropylphenyl)-2,3,4,5,5a,6,8,9-octahydro-7H-1,2,5,7-tetraazabenzo[cd]azulen-7-yl)prop-2-en-1-one] | > 3000 nM | 1 to 100 nM | – | – |
| 0.005 to 0.015 µM | < 0.0015 µM | C=CC(=O)N1CCc2nn(-c3ccc(C4CC4)cc3)c3c2C(C1)N(C(=O)c1cnc(Br)cc1N)CC3 (stereo not drawn) [Compound 166, 1-(5-(4-amino-6-bromonicotinoyl)-2-(4-cyclopropylphenyl)-2,3,4,5,5a,6,8,9-octahydro-7H-1,2,5,7-tetraazabenzo[cd]azulen-7-yl)prop-2-en-1-one] | > 3000 nM | 1 to 100 nM | – | – |
